Reference: patent US10508077B2 (FORMA Therapeutics, Inc., priority 2015, dated 2019)

Experiments:
[1] = molecular target: T1, Recombinant N-terminal GST tag full-length human HDAC8 (Homo sapiens, UniProt Q9BY41); assay: HDAC8 probe binding assay, time resolved fluorescence (TRF); conditions: fluorescein labeled pan-HDAC inhibitor probe, 16 hours incubation, compounds listed under IC50 range headings
T1 construct: Recombinant N-terminal GST tag full-length human HDAC8; purchased SignalChem H90-30G-1000; host or cells: Sf9 insect cells (baculovirus)
T1 sequence (Q9BY41 1-377): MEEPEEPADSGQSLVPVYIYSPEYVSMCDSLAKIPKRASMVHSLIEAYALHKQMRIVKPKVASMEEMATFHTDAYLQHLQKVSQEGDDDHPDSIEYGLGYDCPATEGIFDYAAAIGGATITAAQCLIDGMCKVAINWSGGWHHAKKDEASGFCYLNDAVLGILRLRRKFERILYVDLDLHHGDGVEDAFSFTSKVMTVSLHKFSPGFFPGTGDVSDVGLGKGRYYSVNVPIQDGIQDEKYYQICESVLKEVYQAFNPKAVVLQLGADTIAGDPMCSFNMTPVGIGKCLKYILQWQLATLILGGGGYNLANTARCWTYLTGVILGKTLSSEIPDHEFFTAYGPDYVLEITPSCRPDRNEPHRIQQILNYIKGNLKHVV
Protocol: The HDAC8 probe binding assay was performed using a time resolved fluorescence (TRF) assay format. Recombinant N-terminal GST tag full-length human HDAC8 was expressed and purified from baculovirus in Sf9 insect cells (SignalChem, #H90-30G-1000), Each assay was performed in 1536 black well microplates (Corning, #3936) in a final volume of 4 μL in assay buffer containing 50 mM HEPES (pH 7.5), 50 mM KCl, 50 mM NaCl, 0.5 mM GSH (L-Glutathione reduced, Sigma #G4251), 0.03% BGG (0.22 μM filtered, Sigma, #G7516-25G), and 0.01% Triton X-100 (Sigma, #T9284-10L). 20 nL of 10-point, 3-fold serial dilution in DMSO was pre-dispensed into respective wells of 1536 assay plates for a final test concentration range of 25 μM to 1.3 nM respectively. The final concentration in the assay of HDAC8 and probe (a fluorescein labeled pan-HDAC inhibitor) was 2.5 nM and 1.5 nM respectively. 2 μL of 2× probe and 2× anti-GST Terbium (Cisbio, #61GSTXLB) was added to assay plates followed by 2 μL of 2× HDAC8. Plates were incubated for 16 hours at room temperature before time resolved fluorescence was read on the Envision (Excitation at 340 nm, and Emission at 485 nm and 535 nm, Perkin Elmer).
Data from HDAC8 Assays were reported as percent inhibition (inh) compared with control wells based on the following equation: % inh=1−((FLU−AveLow)/(AveHigh−AveLow)) where FLU=measured time resolved fluorescence. AveLow=average time resolved fluorescence of no enzyme control (n=32). AveHigh=average time resolved fluorescence of DMSO control (n=32). IC50 values were determined by curve fitting of the standard 4 parameter logistic fitting algorithm included in the Activity Base software package: IDBS XE Designer Model205. Data is fitted using the Levenburg Marquardt algorithm.

[2] = molecular target: T2, Full length human recombinant HDAC8 protein (Homo sapiens, UniProt Q9BY41); assay: In vitro histone deacetylase assay: enzymatic HDAC8 assay, electrophoretic mobility shift; assay type: biochemical; conditions: substrate RHKK(Ac)-NH2, 1 nM enzyme, compounds listed under IC50 range headings
T2 construct: Full length human recombinant HDAC8 protein was expressed in baculoviral system; made in house
T2 sequence (Q9BY41 1-377): T1 sequence (Q9BY41 1-377)
How it was run: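 Baculovirus-expressed full-length human HDAC8 (1 nM) deacetylated 2 µM fluorescent RHKK(Ac)-NH2 peptide in pH 7.5 HEPES, 1% DMSO, at 25 °C, with 12 compound concentrations at 3× spacing. SDS-quenched; product and substrate resolved by microfluidic electrophoresis, P/(S+P) converted to percent inhibition, and IC50 obtained by 4-parameter fit.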

SMILES	IC50 [1]	IC50 [2]
CN(C(=O)c1cccc(C(F)(F)F)c1)c1ccccc1/C=C/C(=O)NO [Example I-54, (E)-N-(2-(3-(hydroxyamino)-3-oxoprop-1-en-1-yl)phenyl)-N-methyl-3-(trifluoromethyl)benzamide]	≤ 1000 nM	< 1000 nM
O=C(/C=C/c1ccccc1N1CCC(NC(=O)c2ccc3[nH]ccc3c2)CC1)NO [Example I-153, (E)-N-(1-(2-(3-(hydroxyamino)-3-oxoprop-1-en-1-yl)phenyl)piperidin-4-yl)-1H-indole-5-carboxamide]	≤ 1000 nM	< 1000 nM
O=C(/C=C/c1ccccc1NC(=O)c1ccccc1Oc1ccccc1)NO [Example I-71, (E)-N-(2-(3-(hydroxyamino)-3-oxoprop-1-enyl)phenyl)-2-phenoxybenzamide]	≤ 1000 nM	< 1000 nM
Cc1ccc(CC(=O)Nc2ccccc2/C=C/C(=O)NO)cc1 [Example I-66, (E)-N-hydroxy-3-(2-(2-(p-tolyl)acetamido)phenyl)acrylamide]	≤ 1000 nM	< 1000 nM
CN1CCN(c2ccccc2/C=C/C(=O)NO)CC1 [Example I-326, (E)-N-hydroxy-3-(2-(4-methylpiperazin-1-yl)phenyl)acrylamide]	≤ 1000 nM	< 1000 nM
O=C(/C=C/c1ccccc1NCc1ccc(-c2nnn[nH]2)cc1)NO [Example I-96, (E)-3-(2-((4-(1H-tetrazol-5-yl)benzyl)amino)phenyl)-N-hydroxyacrylamide]	≤ 1000 nM	< 1000 nM
COc1ccc(CN2CCN(c3ccccc3/C=C/C(=O)NO)C(=O)C2)cc1 [Example I-293, (E)-N-hydroxy-3-(2-(4-(4-methoxybenzyl)-2-oxopiperazin-1-yl)phenyl)acrylamide]	≤ 1000 nM	< 1000 nM
O=C(/C=C/c1ccccc1NCc1cccc(CCCO)c1)NO [Example I-48, (E)-N-hydroxy-3-(2-((3-(3-hydroxypropyl)benzyl)amino)phenyl)acrylamide]	1000 to 100000 nM	< 1000 nM
CC(C)CCC(=O)Nc1ccccc1/C=C/C(=O)NO [Example I-67, (E)-N-(2-(3-(hydroxyamino)-3-oxoprop-1-en-1-yl)phenyl)-4-methylpentanamide]	≤ 1000 nM	< 1000 nM
CCCn1c(C(=O)Nc2ccccc2/C=C/C(=O)NO)cc2ccccc21 [Example I-270, (E)-N-(2-(3-(hydroxyamino)-3-oxoprop-1-en-1-yl)phenyl)-1-propyl-1H-indole-2-carboxamide]	≤ 1000 nM	< 1000 nM
O=C(/C=C/c1ccccc1N1CCN(Cc2ccc(F)cc2)CC1=O)NO [Example I-530, (E)-3-(2-(4-(4-fluorobenzyl)-2-oxopiperazin-1-yl)phenyl)-N-hydroxyacrylamide]	≤ 1000 nM	< 1000 nM
O=C(/C=C/c1ccccc1N1CCC2(CCNC2)C1)NO (centres unmarked) [Example I-113, (E)-3-(2-(2,7-diazaspiro[4.4]nonan-2-yl)phenyl)-N-hydroxyacrylamide 2,2,2-trifluoroacetate]	≤ 1000 nM	< 1000 nM
O=C(/C=C/c1cc(C(F)(F)F)ccc1NC(=O)c1ccccc1Oc1ccc(F)cc1)NO [Example I-556, 2-(4-fluorophenoxy)-N-{2-[(1E)-2-(hydroxycarbamoyl)eth-1-en-1-yl]-4-(trifluoromethyl)phenyl}benazmide]	≤ 1000 nM	< 1000 nM
O=C(/C=C/c1ccccc1NC(=O)c1cc2ccccc2[nH]1)NO [Example I-77]	≤ 1000 nM	< 1000 nM
O=C(/C=C/c1ccccc1N1CCN(Cc2ccc(N3CCCC3)nc2)CC1)NO [Example I-182, (E)-N-hydroxy-3-(2-(4-((6-(pyrrolidin-1-yl)pyridin-3-yl)methyl)piperazin-1-yl)phenyl)acrylamide]	≤ 1000 nM	< 1000 nM
COc1ccc(NC(=O)N2CCN(c3ccccc3/C=C/C(=O)NO)C(=O)C2)cc1 [Example I-529, (E)-4-(2-(3-(hydroxyamino)-3-oxoprop-1-en-1-yl)phenyl)-N-(4-methoxyphenyl)-3-oxopiperazine-1-carboxamide]	≤ 1000 nM	< 1000 nM

SMILES	IC50 [1]	IC50 [2]
O=C(/C=C/c1ccccc1NCc1ccnc(N2CCOCC2)c1)NO [Example I-98, (E)-N-hydroxy-3-(2-(((2-morpholinopyridin-4-yl)methyl)amino)phenyl)acrylamide]	≤ 1000 nM	< 1000 nM
O=C(/C=C/c1ccccc1C(=O)N1CCN(c2cnccn2)CC1)NO [II-22, (E)-N-hydroxy-3-(2-(4-(pyrazin-2-yl)piperazine-1-carbonyl)phenyl)acrylamide]	≤ 1000 nM	< 1000 nM
Cc1onc(-c2ccccc2Cl)c1C(=O)Nc1ccccc1/C=C/C(=O)NO [Example I-320, (E)-3-(2-chlorophenyl)-N-(2-(3-(hydroxyamino)-3-oxoprop-1-en-1-yl)phenyl)-5-methylisoxazole-4-carboxamide]	≤ 1000 nM	< 1000 nM
O=C(/C=C/c1ccccc1S(=O)(=O)C1CCN(C(=O)Cc2ccc(Cl)cc2)CC1)NO [II-29]	≤ 1000 nM	< 1000 nM
Cc1oc(C(C)(C)C)cc1C(=O)Nc1ccccc1/C=C/C(=O)NO [Example I-265, (E)-5-(tert-butyl)-N-(2-(3-(hydroxyamino)-3-oxoprop-1-en-1-yl)phenyl)-2-methylfuran-3-carboxamide]	≤ 1000 nM	< 1000 nM
O=C(/C=C/c1ccccc1NC(=O)c1ccc2[nH]ccc2c1)NO [Example I-62, (E)-N-(2-(3-(hydroxyamino)-3-oxoprop-1-en-1-yl)phenyl)-1H-indole-5-carboxamide]	≤ 1000 nM	< 1000 nM
O=C(/C=C/c1ccccc1NC(=O)CC1CCCC1)NO [Example I-68, (E)-3-(2-(2-cyclopentylacetamido)phenyl)-N-hydroxyacrylamide]	≤ 1000 nM	< 1000 nM
CC(=O)N1CCCC12CCN(c1ccccc1/C=C/C(=O)NO)C2 (centres unmarked) [Example I-545]	≤ 1000 nM	< 1000 nM
O=C(/C=C/c1ccccc1N1CC[C@H](c2ccccc2)C1=O)NO (single isomer, unassigned) [Example I-327]	≤ 1000 nM	< 1000 nM
O=C(/C=C/c1ccccc1NC(=O)C1CCc2ccccc2C1)NO (centres unmarked) [Example I-65, (E)-N-(2-(3-(hydroxyamino)-3-oxoprop-1-en-1-yl)phenyl)-1,2,3,4-tetrahydronaphthalene-2-carboxamide]	≤ 1000 nM	< 1000 nM
O=C(/C=C/c1ccccc1NC(=O)[C@H]1C[C@H]1c1ccccc1)NO [Example I-73, (1S,2R)-N-(2-((E)-3-(hydroxyamino)-3-oxoprop-1-en-1-yl)phenyl)-2-phenylcyclopropane-1-carboxamide]	≤ 1000 nM	< 1000 nM
O=C(/C=C/c1ccccc1N1CCN(C(=O)c2cn[nH]c2)CC1)NO [Example I-206]	≤ 1000 nM	< 1000 nM
O=C(/C=C/c1ccccc1C(=O)N1CCC(F)(F)C1)NO [II-28, (E)-3-(2-(3,3-difluoropyrrolidine-1-carbonyl)phenyl)-N-hydroxyacrylamide]	≤ 1000 nM	< 1000 nM
O=C(/C=C/c1ccccc1NC(=O)c1ccccc1Oc1ccc(Cl)cc1)NO [Example I-268, (E)-2-(4-chlorophenoxy)-N-(2-(3-(hydroxyamino)-3-oxoprop-1-en-1-yl)phenyl)benzamide]	≤ 1000 nM	< 1000 nM
CC(C)(C)OC(=O)N1CCC2(CC1)CCN(c1ccccc1/C=C/C(=O)NO)C2=O [Example I-310, tert-butyl (E)-2-(2-(3-(hydroxyamino)-3-oxoprop-1-en-1-yl)phenyl)-1-oxo-2,8-diazaspiro[4.5]decane-8-carboxylate]	≤ 1000 nM	< 1000 nM
